In US20100173956A1, “Use of Quaternary Pyridinium Salts as Vasoprotective Agents” (Pharmena Spolka Akcyjna (Pharmena S.A.), priority 2004, published 2010):
“Also recorded” adds a separate entry of the source.

Columns and labels:
[1] = test system: 6-keto-PGF1α (stable PGI2 metabolite); assay: Assay of 6-keto-PGF1α in arterial blood plasma (enzyme immunoassay); type: in vivo, Wistar rats
Procedure: (§1) The analysis of the thrombolytic response in this experimental set-up was complemented by the assay of 6-keto-PGF1α, TXB2 and PGE2 in arterial blood plasma. For this purpose blood samples (500 μl) were collected in Eppendorff tubes with indomethacin to yield its final concentration of 10 μM, and EDTA to yield the final concentration of 1 mM. Then, the blood samples were spinned for 5 min at 2.000×g. Plasma samples were stored at −70° C. The prostanoids were assayed using the enzyme immunoassay kits (Cayman Chemical Co, Ann Arbor, Mich.).

[2] = test system: platelet-rich thrombi; assay: Thrombolytic activity in rats with extracorporal circulation (method of Gryglewski); type: in vivo, Wistar rats; conditions: for thrombolytic response: single injection, fall in weight of thrombi, maximum response
Procedure: Thrombolytic activity of quaternary pyridinium salts was assessed using original method of Gryglewski et al., (Gryglewski R J, Korbut R, Ocetkiewicz A, Stachura J. In vivo method for quantitation for anti-platelet potency of drugs. Naunyn Schmiedebergs Arch Pharmacol 1978; 302:25-30), the scheme of which was shown on FIG. 1.
(§2) Wistar rats of body weight 300-350 g were anaesthetised (thiopental 30 mg kg^−1 i.p.) and heparinised (unfractionated heparin. 800 i.u. kg^−1 i.v.). Arterial blood pressure was measured from cannulated right carotid artery, and extracorporal circulation was established between left carotid artery and left jugular vein. A collagen strip from rabbit tendon of Achilles was superfused with arterial blood in extracorporal circulation at a rate of 1.5 ml min^−1 and its weight was continuously monitored by an auxotonic Harvard transducer.
(§3) During the initial 20-30 min of superfusion the strip was gaining in weight by 80-120 mg because of deposition of platelet-rich thrombi and then in control conditions stayed unchanged during next 3-5 hrs. Thrombolytic response was detected by a fall in weight of a thrombi. Arterial blood pressure was also monitored, so this model enabled the analysis of thrombolytic and hypotensive action of a compound (FIG. 1).

[3] = test system: platelets; assay: Collagen-induced aggregation in platelet-rich plasma in vitro; type: cell-based; conditions: for effect on collagen-induced aggregation of platelets (FIG. 9): FIG. 9, (1 mg/ml)
[4] = test system: PGE2; assay: Assay of PGE2 in arterial blood plasma (enzyme immunoassay); type: in vivo, Wistar rats; conditions: 30 mg/kg i.v.
Procedure: as §1

[5] = test system: TXB2; assay: Assay of TXB2 in arterial blood plasma (enzyme immunoassay); type: in vivo, Wistar rats; conditions: 30 mg/kg i.v.
Procedure: as §1

[6] = Anti-atherogenic effect in dyslipidemic patients (plasma TC, TG, HDL); type: in vivo; conditions: 30 mg orally three times a day
Procedure: The anti-atherogenic effect of MNA^+ was investigated in 15 dyslipidemic patients. The enrollment criteria were: high level of TG (≧250 mg/dl) and low level of HDL (≦35 mg/dl for male, ≦45 mg/dl for female). The mean age of the patients was 61.4 (range 45-81 years). The patients were treated with MNA^+ for 2 weeks. The MNA^+ was administered orally, three times a day, one capsule (30 mg MNA^+) after meal. The plasma levels of TC, TG, HDL were measured at baseline and after 2 weeks of therapy. The level of LDL was measured in those cases, where it was possible (due to high TG level).

[7] = Arterial blood pressure monitoring (hypotensive action); type: in vivo, Wistar rats
Procedure: as §2, §3

[8] = test system: neutrophils; assay: Latex-induced activation of neutrophils; type: cell-based

With `NC(=O)c1cccnc1` [nicotinamide] the “change of 6-keto-PGF1α level / release of PGI2 (in words)” value ([1]; 30 mg/kg i.v.) was “did not increase”, the “thrombolytic response (in words)” value ([2]; 30 mg/kg i.v.) was “Lack of thrombolytic response; also recorded: failed to induce a significant thrombolytic response” and the thrombolytic response ([2]; 30 mg/kg i.v.) was 9±0.6%. For the same molecule, the “thrombolytic response (in words)” value ([2]; 30 mg/kg i.v., listed as Nicotinamide) was “did not display a significant thrombolytic activity”.
For `C[n+]1cccc(C(=O)[O-])c1` [trigonelline], the “thrombolytic response (in words)” value ([2]; 30 mg/kg i.v.) was “Lack of thrombolytic response; also recorded: failed to induce a significant thrombolytic response; also recorded: did not display a significant thrombolytic activity” and the thrombolytic response ([2]; 30 mg/kg i.v.) was “did not produce any thrombolytic response”.
In the case of `O=C(O)c1cccnc1` [nicotinic acid], the “change of 6-keto-PGF1α level / release of PGI2 (in words)” value ([1]; 30 mg/kg i.v.) is reported as “did not increase”, the “thrombolytic response (in words)” value ([2]; 30 mg/kg i.v.) is reported as “Lack of thrombolytic response; also recorded: failed to induce a significant thrombolytic response; also recorded: did not display a significant thrombolytic activity” and the thrombolytic response ([2]; 30 mg/kg i.v.) is reported as 5±0.9%.
In the case of `CC(=O)Oc1ccccc1C(=O)O` [aspirin, reference compound], the “effect on collagen-induced aggregation of platelets (FIG. 9)” value [3] is reported as “abrogated”.
In the case of `C[n+]1cccc(C(=O)NCO)c1` [MNAF^+, 1-methyl-N′-(hydroxymethyl)nicotinamide], the “thrombolytic response (in words)” value ([2]; 30 mg/kg i.v.) is reported as “comparable to that induced by 30 mg/kg of MNA^+”.
For `C[n+]1cccc(C(N)=O)c1` [MNA^+, 1-methylnicotinamide], the “change of 6-keto-PGF1α level / release of PGI2 (in words)” value ([1]; 30 mg/kg i.v.) was “concomitant increase in level of 6-keto-PGF1α”, the “level of 6-keto-PGF1α in arterial plasma” value ([1]; 30 mg/kg i.v., 15 minutes after injection, before injection 104±7 pg/ml) was 460 ± 58 pg/mL and the “plateau level of 6-keto-PGF1α in arterial plasma” value ([1]; 30 mg/kg i.v., for at least one hour) was “around 400 pg/ml”. The “release of 6-keto-PGF1α in the presence of indomethacin” value ([1]; indomethacin 5 mg/kg) was “abrogated”, the “change of PGE2 level in arterial plasma” value [4] was “neither TXB2 nor PGE2 levels changed significantly” and the “effect on collagen-induced aggregation of platelets (FIG. 9)” value [3] was “Lack of effect; also recorded: did not inhibit”. For the same molecule, the “effect on collagen-induced aggregation in platelet-rich plasma” value ([3]; in vitro, up to concentration of 10 mM) was “not affected”, the thrombolytic response ([2]; 30 mg/kg i.v.) was 42±4% and the “duration of thrombolytic response” value ([2]; 30 mg/kg i.v., response remained at approximately the same level over the observation period) was 2 to 3 h. For the same molecule, the “dose dependence of thrombolysis” value ([2]; 3-30 mg/kg i.v.) was “concentration-dependent thrombolysis”, the “dose of maximum thrombolytic response” value ([2]; i.v., 3-30 mg/kg tested) was 30 mg/kg and the “thrombolytic response in the presence of indomethacin” value ([2]; indomethacin 5 mg/kg) was “abrogated”. For the same molecule, the “change of TXB2 level in arterial plasma” value [5] was “neither TXB2 nor PGE2 levels changed significantly”, the “change of TC level, baseline to 2 weeks” value [6] was −15.7% and the “change of TG level, baseline to 2 weeks” value [6] was −47.1%. The “increase of HDL level, baseline to 2 weeks” value [6] was 36.2%, the “TC plasma level after 2 weeks” value ([6]; 15 dyslipidemic patients, baseline 267.0 mg/dl) was 225.1 mg/dL and the “HDL plasma level after 2 weeks” value ([6]; baseline 39.2 mg/dl) was 53.4 mg/dL. The “TG plasma level after 2 weeks” value ([6]; baseline 472.6 mg/dl) was 249.9 mg/dL, the “TG/HDL ratio after 2 weeks” value ([6]; baseline 13.9) was 5.8 and the “fall in arterial blood pressure” value ([7]; 30 mg/kg i.v., during thrombolysis) was “not associated with a fall in arterial blood pressure”. For the same molecule, the hypotension ([7]; 30-300 mg/kg) was “did not cause hypotension”, the “inhibition of latex-induced activation of neutrophils” value ([8]; 1 mM) was “did not inhibit” and the “effect on latex-induced activation of neutrophils (FIG. 10)” value (from here on “effect on latex-induced activation”) [8] was “Lack of effect; also recorded: did not inhibit”.
With `c1ccc2c(c1)[I+]c1ccccc1-2` [DPI, reference compound] the “effect on latex-induced activation” value [8] was “abrogated”.
In the case of “1-Methyl-3-acetylpyridinium salt [MAP^+]”, the “change of 6-keto-PGF1α level / release of PGI2 (in words)” value ([1]; 30 mg/kg i.v.) is reported as “associated with the release of PGI2” and the “thrombolytic response (in words)” value ([2]; 30 mg/kg i.v.) is reported as “comparable to that induced by 30 mg/kg of MNA^+”.
With `COc1cc(C(C)=O)ccc1O` [apocynin, reference compound] the “effect on latex-induced activation” value [8] was “abrogated”.
With `Cn1cc(C(N)=O)ccc1=O` [2-PYR, 1-methyl-2-pyridone-5-carboxyamide] the “duration of thrombolytic response (transient)” value ([2]; 30 mg/kg i.v.) was less than 15 min, the “thrombolytic response (in words)” value ([2]; 30 mg/kg i.v.) was “Lack of thrombolytic response; also recorded: failed to induce a significant thrombolytic response; also recorded: did not display a significant thrombolytic activity” and the thrombolytic response ([2]; 30 mg/kg i.v.) was less than 10%.
